Results on 21 compounds are retold here after US9549942B2, “Composition for preventing or treating degenerative brain diseases including compound downregulating expression of BACE1 proteins” (RESEARCH & BUSINESS FOUNDATION SUNGKYUNKWAN UNIVERSITY, priority 2013, dated 2017).

Counter-ions that a name gives are not always drawn. Like-named read-outs stand apart in the source and are kept apart here.

Test [1] deals with BACE1 promoter. Briefly: BACE1 promoter activity, BACE1 promoter-luciferase vector, Dual-Luciferase assay. The settings on record: Homo sapiens, read-out: decrease of BACE1 promoter activity. It counts as cell-based. The method, then:
A BACE1 promoter-luciferase vector was transfected to brain nerve cells (SH-SY5Y). […] A change in a BACE1 promoter activity was measured using a Dual-Luciferase assay kit.

Test [2] has as its system BACE1 proteins. Put plainly: Amount of expression of BACE1 proteins in brain nerve cells (Western blot). It counts as cell-based, human. The settings on record: SH-SY5Y cells, actin control. The method, then: As brain nerve cells, human neuroblastoma cells SH-SY5Y were used. […] The SH-SY5Y cells were plated at 5×10^5 cells/well into a 6-well plate. […] Then, the amount of expression of BACE1 proteins was determined by Western blot. Actin was used throughout as a control.
A general note: A western blot detects proteins with antibodies after separation by electrophoresis.

The mark [3] stands for this setting: SH-SY5Y transfected with BACE1 promoter-luciferase vector, 10 μM for 24 hours.
[4] abbreviates: treated 24 hours at 0.625, 1.25, 2.5, 5 and 10 μM.

On to `CCN(CCCCOC(=O)c1ccc(OC)c(OC)c1)C(C)Cc1ccc(OC)cc1` (stereo not drawn) [mebeverine hydrochloride], for which the inhibition at 10 µM in test [1] (setting [3]) was not below 50%.

`Clc1cnccn1` [2-chloropyrazine]: the inhibition at 10 µM in test [1] (setting [3]) is not below 50%. For the compound `COC(=O)Nc1nc2cc(C(=O)c3ccccc3)ccc2[nH]1` [mebendazole], the “amount of expression of BACE1 proteins” value in test [2] (setting [4]) is given as “decreased at 0.625 μM to 10 μM”. Further, the inhibition at 10 µM in test [1] (setting [3]) was not below 50%. For `CCCOc1ccccc1-c1nc2nn[nH]c2c(=O)[nH]1` [zaprinast], the inhibition at 10 µM in test [1] (setting [3]) is not below 50%.

For the compound `O=C(c1ccc(OCCN2CCCCC2)cc1)c1c(-c2ccc(O)cc2)sc2cc(O)ccc12` [raloxifene hydrochloride], the inhibition at 10 µM in test [1] (setting [3]) was not below 50%. The same measure, in the same setting: in the case of `CC[C@H](c1ccc(O)cc1)[C@@H](CC)c1ccc(O)cc1` [hexestrol] it was not below 50%; in that of `Cn1cnc([N+](=O)[O-])c1Sc1ncnc2nc[nH]c12` [azathioprine], not below 50%. Take `CC(C)=CCC/C(C)=C/CC/C(C)=C/CO` [farnesol]: the “amount of expression of BACE1 proteins” value in test [2] (treated 24 hours at 0.001, 0.01 and 0.1 μM) was “decreased at 0.01 μM and 0.1 μM”. In addition, the inhibition at 10 µM in test [1] (setting [3]) was not below 50%. For `COC(=O)Nc1nc2cc(Sc3ccccc3)ccc2[nH]1` [fenbendazole], in test [2] (setting [4]), the “amount of expression of BACE1 proteins” value is “decreased at 0.625 μM to 10 μM”. In test [1] (setting [3]), the inhibition at 10 µM was not below 50%. On to `COc1cc(C(=O)NCc2ccc(OCCN(C)C)cc2)cc(OC)c1OC` [trimethobenzamide hydrochloride], for which, in test [1] (setting [3]), the inhibition at 10 µM was not below 50%. In the case of `CC[C@@]1(O)C(=O)OCc2c1cc1n(c2=O)Cc2cc3c(CN(C)C)c(O)ccc3nc2-1` [topotecan], the inhibition at 10 µM in test [1] (setting [3]) was not below 50%.

For the compound `COc1cc2c(c(OC)c1OC)-c1ccc(OC)c(=O)cc1[C@@H](NC(C)=O)CC2` [colchicine], the inhibition at 10 µM in test [1] (SH-SY5Y, 24 h) is not below 50%. On to `Nc1ccc(S(=O)(=O)Nc2cnc3ccccc3n2)cc1` [sulfaquinoxaline sodium salt], for which the inhibition at 10 µM in test [1] (setting [3]) was not below 50%. On to `CC1(C)O[C@@H]2C[C@H]3[C@@H]4C[C@H](F)C5=CC(=O)C=C[C@]5(C)[C@H]4[C@@H](O)C[C@]3(C)[C@]2(C(=O)CO)O1` [flunisolide], for which the inhibition at 10 µM in test [1] (setting [3]) is not below 50%. As for `COc1ccc2c(c1)[nH]c1c(C)nccc12` [harmine hydrochloride], the inhibition at 10 µM in test [1] (SH-SY5Y, 24 h) was not below 50%. With `CCN(CC)C(=O)/C(C#N)=C/c1cc(O)c(O)c([N+](=O)[O-])c1` [entacapone], the inhibition at 10 µM in test [1] (setting [3]) was not below 50%.

As for `CCCN(CCC)S(=O)(=O)c1ccc(C(=O)O)cc1` [probenecid], the inhibition at 10 µM in test [1] (setting [3]) was not below 50%. In the case of `C=C(NC(=O)C(=C)NC(=O)c1csc(C2=N[C@@H]3c4csc(n4)[C@H]4NC(=O)c5csc(n5)[C@H]([C@](C)(O)[C@@H](C)O)NC(=O)[C@H]5CSC(=N5)/C(=C/C)NC(=O)[C@H]([C@@H](C)O)NC(=O)c5csc(n5)[C@]3(CC2)NC(=O)[C@H](C)NC(=O)C(=C)NC(=O)[C@H](C)NC(=O)[C@H]([C@@H](C)CC)N[C@@H]2C=Cc3c([C@H](C)O)cc(nc3[C@H]2O)C(=O)O[C@@H]4C)n1)C(N)=O` [thiostrepton], in test [1] (SH-SY5Y, 24 h), the inhibition at 10 µM is not below 50%.

Consider `CC[C@@]1([C@@H]2O[C@@H]([C@H]3O[C@@](O)(CO)[C@H](C)C[C@@H]3C)C[C@@H]2C)CC[C@H]([C@]2(C)CC[C@]3(C[C@H](O)[C@@H](C)[C@@H]([C@@H](C)[C@@H](OC)[C@H](C)C(=O)O)O3)O2)O1` [monensin sodium salt], for which, in test [1] (setting [3]), the inhibition at 10 µM was not below 50%. `NC1CCN(c2nc3c(cc2F)c(=O)c(C(=O)O)cn3-c2ccc(F)cc2F)C1` (stereo not drawn) [tosufloxacin hydrochloride]: in test [1] (setting [3]), the inhibition at 10 µM is not below 50%. The same measure, in the same setting: in the case of `O=C1Nc2ccc(Cl)cc2[C@@](C#CC2CC2)(C(F)(F)F)O1` [efavirenz] it was not below 50%.
